From ChEMBL document CHEMBL1201862, “PubChem BioAssay data set” (2004) come the findings set out here.

Active and inactive are the calls of the source. Some results are limits rather than exact numbers.

The target in one assay is T1, Bcl-2-like protein 10 (Homo sapiens, UniProt Q9HD36).
T1 sequence (Q9HD36 whole entry): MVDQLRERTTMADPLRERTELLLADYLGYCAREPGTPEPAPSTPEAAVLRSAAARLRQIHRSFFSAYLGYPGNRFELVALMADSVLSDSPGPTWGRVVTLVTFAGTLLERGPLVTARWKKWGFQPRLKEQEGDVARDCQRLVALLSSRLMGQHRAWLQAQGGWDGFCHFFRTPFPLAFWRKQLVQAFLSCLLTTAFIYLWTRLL
As to the kind of experiment: Concentration-response of Bcl-B inhibitors by biochemical FP with TR3 (AID 1243). In kind it is functional.

The target in the next assay is Prothrombin (Bos taurus, UniProt P00735). Nature of the assay: thrombin protease inhibitors – biochemical, fluorescence polarization, uHTS hits, dose response (AID 602369). In kind it is functional. A general note: In fluorescence polarisation assays a small probe gives low polarisation when free and higher when bound to something large.
Assay [1] deals with 26S proteasome non-ATPase regulatory subunit 14 (Homo sapiens, UniProt O00487). Nature of the assay: inhibition of proteasome subunit RPN11 – biochemical, fluorescence polarization, uHTS hits, confirmation (AID 602368). The assay is classed as functional.
Assay [2] deals with T2, Histone-lysine N-methyltransferase NSD2 (Homo sapiens, UniProt O96028).
T2 sequence (O96028 whole entry): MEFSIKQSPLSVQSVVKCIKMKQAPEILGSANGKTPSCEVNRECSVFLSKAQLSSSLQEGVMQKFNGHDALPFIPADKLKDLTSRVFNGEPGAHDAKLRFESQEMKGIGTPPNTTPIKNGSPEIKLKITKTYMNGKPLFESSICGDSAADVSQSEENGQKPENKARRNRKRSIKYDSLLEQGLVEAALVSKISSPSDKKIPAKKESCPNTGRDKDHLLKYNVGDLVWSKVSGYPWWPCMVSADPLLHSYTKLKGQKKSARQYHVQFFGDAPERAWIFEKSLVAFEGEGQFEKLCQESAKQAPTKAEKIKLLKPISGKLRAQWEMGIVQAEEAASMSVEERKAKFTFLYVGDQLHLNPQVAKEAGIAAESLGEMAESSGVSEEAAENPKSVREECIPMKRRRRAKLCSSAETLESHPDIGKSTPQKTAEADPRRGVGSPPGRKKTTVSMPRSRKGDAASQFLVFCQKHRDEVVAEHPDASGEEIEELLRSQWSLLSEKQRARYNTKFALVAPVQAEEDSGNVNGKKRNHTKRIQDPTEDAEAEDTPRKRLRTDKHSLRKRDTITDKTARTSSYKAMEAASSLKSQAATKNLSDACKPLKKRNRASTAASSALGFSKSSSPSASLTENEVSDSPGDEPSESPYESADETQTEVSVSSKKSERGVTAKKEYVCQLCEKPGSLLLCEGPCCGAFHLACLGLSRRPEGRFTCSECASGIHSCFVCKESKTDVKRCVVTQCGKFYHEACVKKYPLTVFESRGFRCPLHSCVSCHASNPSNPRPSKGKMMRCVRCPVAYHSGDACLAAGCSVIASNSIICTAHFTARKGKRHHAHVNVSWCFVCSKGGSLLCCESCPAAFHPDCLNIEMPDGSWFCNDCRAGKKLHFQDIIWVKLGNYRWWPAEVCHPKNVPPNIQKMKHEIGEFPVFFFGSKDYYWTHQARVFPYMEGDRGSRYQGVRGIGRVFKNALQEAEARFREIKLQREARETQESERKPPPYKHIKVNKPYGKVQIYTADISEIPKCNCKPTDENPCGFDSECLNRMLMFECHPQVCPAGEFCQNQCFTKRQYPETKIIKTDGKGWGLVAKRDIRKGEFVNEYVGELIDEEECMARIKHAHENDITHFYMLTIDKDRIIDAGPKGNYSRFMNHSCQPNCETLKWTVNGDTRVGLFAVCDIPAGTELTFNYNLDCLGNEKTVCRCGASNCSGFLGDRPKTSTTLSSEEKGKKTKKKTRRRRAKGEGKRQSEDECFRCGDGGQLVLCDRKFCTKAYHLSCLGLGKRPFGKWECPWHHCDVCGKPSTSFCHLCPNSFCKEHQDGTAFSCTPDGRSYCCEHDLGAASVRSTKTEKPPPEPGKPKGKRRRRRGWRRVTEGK
The assay is classed as biochemical.

The target of assay [3] is Induced myeloid leukemia cell differentiation protein Mcl-1 (Homo sapiens, UniProt Q07820). The assay is classed as functional.
Assay [4] addresses 72 kDa type IV collagenase (Homo sapiens, UniProt P08253). Nature of the assay: Dose Response validation of uHTS RPN11 inhibitor hits using a MMP-2 Fluorescence assay. In kind it is functional.
For the next assay, the target named is T3, Aminopeptidase N (Plasmodium falciparum FcB1/Columbia, UniProt O96935).
T3 sequence (O96935 whole entry): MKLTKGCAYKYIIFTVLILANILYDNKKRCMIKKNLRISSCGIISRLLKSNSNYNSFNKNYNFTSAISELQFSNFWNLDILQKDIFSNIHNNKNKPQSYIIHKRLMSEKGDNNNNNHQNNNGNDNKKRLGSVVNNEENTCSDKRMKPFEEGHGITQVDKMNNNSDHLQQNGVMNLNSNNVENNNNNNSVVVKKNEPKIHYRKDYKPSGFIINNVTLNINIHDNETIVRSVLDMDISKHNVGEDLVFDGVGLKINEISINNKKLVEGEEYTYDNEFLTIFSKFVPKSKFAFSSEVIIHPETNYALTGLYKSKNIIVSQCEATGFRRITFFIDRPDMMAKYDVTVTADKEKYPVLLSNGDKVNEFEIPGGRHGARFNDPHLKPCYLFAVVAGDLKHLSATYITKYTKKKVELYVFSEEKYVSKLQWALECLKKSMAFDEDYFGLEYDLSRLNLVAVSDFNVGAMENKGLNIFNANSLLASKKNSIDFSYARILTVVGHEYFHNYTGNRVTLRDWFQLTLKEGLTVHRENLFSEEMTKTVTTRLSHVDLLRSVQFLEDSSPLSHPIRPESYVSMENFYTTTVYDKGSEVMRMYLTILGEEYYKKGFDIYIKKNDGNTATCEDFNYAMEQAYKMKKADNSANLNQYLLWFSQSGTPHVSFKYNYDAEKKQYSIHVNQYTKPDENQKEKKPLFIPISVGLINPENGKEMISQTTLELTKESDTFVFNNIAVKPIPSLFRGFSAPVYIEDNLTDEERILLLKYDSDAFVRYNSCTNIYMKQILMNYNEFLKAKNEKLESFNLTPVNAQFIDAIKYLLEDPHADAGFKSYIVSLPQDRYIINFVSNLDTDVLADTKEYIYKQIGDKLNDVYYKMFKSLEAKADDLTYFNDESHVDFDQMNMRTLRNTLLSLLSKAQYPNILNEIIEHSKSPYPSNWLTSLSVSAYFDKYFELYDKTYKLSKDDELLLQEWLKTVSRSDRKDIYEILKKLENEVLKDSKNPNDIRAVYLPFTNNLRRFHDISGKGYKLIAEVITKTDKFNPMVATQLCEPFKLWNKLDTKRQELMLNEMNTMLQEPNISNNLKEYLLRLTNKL
As to the kind of experiment: malaria alanyl aminopeptidase activity blockers – biochemical, fluorogenic H-Leu-NHMec substrate, 1536-well (AID 1445). Also on record: species or system Plasmodium falciparum 3D7, 3D7.

Assay [5] is described as follows: antiviral protection against BTV-induced cell death – arbovirus, BSR cells, confirmation (AID 1250).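 Further: protection from viral cytopathic effect measured as cell viability by ATP luminescence.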 In kind it is functional.
The target in assay [6] is DNA (cytosine-5)-methyltransferase 1 (Homo sapiens, UniProt P26358). As to the kind of experiment: inhibition of DNA methylation by DNMT1 – biochemical, fluorescent molecular beacon, confirmation (AID 602386). The assay is classed as functional.
In assay [7] the target is Epstein-Barr nuclear antigen 1 (Epstein-Barr virus (strain B95-8) (HHV-4) (Human herpesvirus 4), UniProt P03211). Nature of the assay: inhibition of EBV nuclear antigen 1 DNA binding – biochemical, fluorescence polarization, 1536-well, dose response (AID 2381).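 Further: fluorescence polarization of a Cy5 DNA probe bound by EBNA-1 protein.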 Also on record: species or system human gammaherpesvirus 4.
For assay [8], the target named is Lytic switch protein BZLF1 (Epstein-Barr virus (strain B95-8) (HHV-4) (Human herpesvirus 4), UniProt P03206). As to the kind of experiment: inhibition of BZLF1 ZTA DNA binding – biochemical, fluorescence polarization, Epstein-Barr virus, 1536-well, counter-screen for EBNA-1 inhibitor project, dose response (AID 2377).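 Further: fluorescence polarization of Cy5-labelled ZRE DNA probe bound by purified Zta.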 Also on record: species or system human gammaherpesvirus 4.

Assay [9] concerns the target Beta-lactamase (Salmonella choleraesuis (strain SC-B67), UniProt Q5J463). Nature of the assay: Epi-absorbance-based counterscreen for selective VIM-2 inhibitors: dose response biochemical high throughput screening assay to identify inhibitors of TEM-1 serine-beta-lactamase. In general terms: Counterscreens check selectivity or assay interference.
Assay [10] deals with T4, Beta Lactamase (Pseudomonas aeruginosa, UniProt Q932Y6). Nature of the assay: VIM-2 CCF2 hydrolysis inhibition, assay artifact filter – biochemical, FRET readout, CCF2 substrate, artefact control for selective VIM-2 inhibitor project, dose response (AID 1926).
Assay [11] addresses T5, Beta-lactamase (Pseudomonas aeruginosa, UniProt Q79MP6). Nature of the assay: […] counterscreen for selective VIM-2 inhibitors: dose response biochemical high throughput screening assay to identify inhibitors of IMP-1 metallo-beta-lactamase.
Assay [12] has as its target T5, Beta-lactamase. As to the kind of experiment: inhibition of IMP-1 beta-lactamase activity – biochemical, epi-absorbance, selectivity assay for VIM-2 inhibitor project, dose response (AID 1920).
Assay [13] in a line: CCR5-tropic HIV-1 fusion blockers – cell-based, CCR5-tropic Env, dose response (AID 2279). In kind it is functional.
Assay [14] concerns the target T6, Probable nicotinate-nucleotide adenylyltransferase (Staphylococcus aureus (strain N315), UniProt P65502). The assay is classed as functional, Staphylococcus aureus subsp. aureus N315. The note with it: read-out: IC50_Mean.
In assay [15] the target is T4, Beta Lactamase. Nature of the assay: concentration-dependent VIM-2 enzyme inhibition – biochemical, epi-absorbance readout, selective inhibitors, dose response (AID 1919).
In a further assay the target is T7, Leucine aminopeptidase (Plasmodium falciparum 3D7, UniProt Q8IL11).
T7 sequence (Q8IL11 whole entry): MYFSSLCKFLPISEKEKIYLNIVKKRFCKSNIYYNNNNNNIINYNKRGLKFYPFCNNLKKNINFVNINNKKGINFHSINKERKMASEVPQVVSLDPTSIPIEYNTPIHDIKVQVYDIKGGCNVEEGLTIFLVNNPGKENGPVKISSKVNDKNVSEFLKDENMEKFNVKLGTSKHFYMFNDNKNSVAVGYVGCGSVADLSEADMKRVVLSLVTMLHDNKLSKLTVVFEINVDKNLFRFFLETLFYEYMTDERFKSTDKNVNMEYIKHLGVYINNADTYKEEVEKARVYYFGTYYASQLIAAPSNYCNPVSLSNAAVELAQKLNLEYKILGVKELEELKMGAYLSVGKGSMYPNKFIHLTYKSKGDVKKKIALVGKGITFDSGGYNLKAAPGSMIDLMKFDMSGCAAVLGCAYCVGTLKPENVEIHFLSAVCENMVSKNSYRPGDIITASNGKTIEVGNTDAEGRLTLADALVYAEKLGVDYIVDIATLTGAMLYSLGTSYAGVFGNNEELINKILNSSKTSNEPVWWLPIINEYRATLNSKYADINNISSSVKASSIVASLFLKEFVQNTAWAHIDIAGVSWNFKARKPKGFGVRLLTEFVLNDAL
As to the kind of experiment: P. falciparum M17LAP inhibitors, primary screen, biochemical, fluorogenic H-Leu-NHMec substrate, 1536-well (AID 1619). In kind it is functional.

Assay [16] deals with T6, Probable nicotinate-nucleotide adenylyltransferase. The assay is classed as functional, Staphylococcus aureus subsp. aureus N315.
Assay [17] has as its target T8, Calpain-2 catalytic subunit (Sus scrofa, UniProt P43367).
T8 sequence (P43367 whole entry): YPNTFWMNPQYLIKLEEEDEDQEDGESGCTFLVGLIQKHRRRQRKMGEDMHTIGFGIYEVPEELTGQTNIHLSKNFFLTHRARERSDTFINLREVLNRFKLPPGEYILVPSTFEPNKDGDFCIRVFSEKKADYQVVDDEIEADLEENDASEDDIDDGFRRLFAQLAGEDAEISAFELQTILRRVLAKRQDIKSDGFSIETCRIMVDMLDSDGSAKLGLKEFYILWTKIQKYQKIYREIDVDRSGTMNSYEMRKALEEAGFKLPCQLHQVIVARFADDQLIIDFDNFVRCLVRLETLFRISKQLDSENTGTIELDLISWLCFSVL
Nature of the assay: m-calpain protease blockers, concentration series – biochemical, fluorogenic peptide substrate, dose response (AID 1420). The assay is classed as functional.
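Wherever IC50 Mean is given: confirmatory dose-response retesting of NadD inhibitor hits first found in an ultra-high-throughput screen.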

T6 sequence (P65502 whole entry): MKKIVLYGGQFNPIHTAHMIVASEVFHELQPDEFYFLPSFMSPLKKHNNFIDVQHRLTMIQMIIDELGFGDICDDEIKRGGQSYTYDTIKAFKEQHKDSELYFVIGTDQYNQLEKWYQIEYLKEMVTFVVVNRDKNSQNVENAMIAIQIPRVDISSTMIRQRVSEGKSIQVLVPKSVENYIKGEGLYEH
T4 sequence (Q932Y6 whole entry): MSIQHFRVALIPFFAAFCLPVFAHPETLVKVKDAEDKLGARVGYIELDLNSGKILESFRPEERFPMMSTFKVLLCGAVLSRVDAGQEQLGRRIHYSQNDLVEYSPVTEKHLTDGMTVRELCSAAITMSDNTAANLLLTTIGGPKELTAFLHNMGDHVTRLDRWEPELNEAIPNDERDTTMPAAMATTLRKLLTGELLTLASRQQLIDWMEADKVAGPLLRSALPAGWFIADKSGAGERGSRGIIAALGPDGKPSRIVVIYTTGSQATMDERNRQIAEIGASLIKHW
T5 sequence (Q79MP6 whole entry): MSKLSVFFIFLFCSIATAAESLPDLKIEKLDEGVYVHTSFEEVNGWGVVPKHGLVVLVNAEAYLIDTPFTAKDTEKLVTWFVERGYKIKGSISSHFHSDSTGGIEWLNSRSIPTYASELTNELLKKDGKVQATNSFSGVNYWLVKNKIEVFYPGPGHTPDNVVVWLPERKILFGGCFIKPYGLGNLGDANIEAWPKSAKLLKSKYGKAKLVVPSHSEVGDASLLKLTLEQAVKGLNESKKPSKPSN
Sequence of Induced myeloid leukemia cell differentiation protein Mcl-1 (Q07820 whole entry): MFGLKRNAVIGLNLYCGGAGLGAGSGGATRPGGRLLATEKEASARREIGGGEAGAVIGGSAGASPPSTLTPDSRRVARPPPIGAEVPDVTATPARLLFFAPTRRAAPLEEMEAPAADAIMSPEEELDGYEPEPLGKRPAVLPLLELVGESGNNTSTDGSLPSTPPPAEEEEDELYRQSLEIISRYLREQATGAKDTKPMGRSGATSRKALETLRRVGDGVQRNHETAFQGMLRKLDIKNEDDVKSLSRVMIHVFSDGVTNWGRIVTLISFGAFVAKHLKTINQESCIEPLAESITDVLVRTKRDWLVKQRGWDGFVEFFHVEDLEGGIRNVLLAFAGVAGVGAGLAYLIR
Sequence of 72 kDa type IV collagenase (P08253 whole entry): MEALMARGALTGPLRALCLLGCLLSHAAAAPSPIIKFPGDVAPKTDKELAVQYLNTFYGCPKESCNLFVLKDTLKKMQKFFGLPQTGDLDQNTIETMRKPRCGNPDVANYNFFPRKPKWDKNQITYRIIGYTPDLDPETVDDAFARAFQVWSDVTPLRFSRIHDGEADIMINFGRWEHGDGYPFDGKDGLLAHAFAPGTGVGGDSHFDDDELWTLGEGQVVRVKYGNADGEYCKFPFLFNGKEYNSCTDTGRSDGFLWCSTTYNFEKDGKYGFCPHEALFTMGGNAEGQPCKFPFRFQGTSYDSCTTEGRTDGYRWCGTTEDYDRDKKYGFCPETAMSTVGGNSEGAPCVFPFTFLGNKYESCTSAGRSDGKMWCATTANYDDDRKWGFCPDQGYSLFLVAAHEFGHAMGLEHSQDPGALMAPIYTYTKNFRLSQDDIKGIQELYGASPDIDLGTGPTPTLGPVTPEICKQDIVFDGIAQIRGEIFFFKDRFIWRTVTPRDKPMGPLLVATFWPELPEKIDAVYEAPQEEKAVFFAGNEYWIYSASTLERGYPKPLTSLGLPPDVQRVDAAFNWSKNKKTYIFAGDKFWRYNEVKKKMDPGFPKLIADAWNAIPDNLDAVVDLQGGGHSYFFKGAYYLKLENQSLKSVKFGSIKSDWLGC
Sequence of DNA (cytosine-5)-methyltransferase 1 (P26358 whole entry): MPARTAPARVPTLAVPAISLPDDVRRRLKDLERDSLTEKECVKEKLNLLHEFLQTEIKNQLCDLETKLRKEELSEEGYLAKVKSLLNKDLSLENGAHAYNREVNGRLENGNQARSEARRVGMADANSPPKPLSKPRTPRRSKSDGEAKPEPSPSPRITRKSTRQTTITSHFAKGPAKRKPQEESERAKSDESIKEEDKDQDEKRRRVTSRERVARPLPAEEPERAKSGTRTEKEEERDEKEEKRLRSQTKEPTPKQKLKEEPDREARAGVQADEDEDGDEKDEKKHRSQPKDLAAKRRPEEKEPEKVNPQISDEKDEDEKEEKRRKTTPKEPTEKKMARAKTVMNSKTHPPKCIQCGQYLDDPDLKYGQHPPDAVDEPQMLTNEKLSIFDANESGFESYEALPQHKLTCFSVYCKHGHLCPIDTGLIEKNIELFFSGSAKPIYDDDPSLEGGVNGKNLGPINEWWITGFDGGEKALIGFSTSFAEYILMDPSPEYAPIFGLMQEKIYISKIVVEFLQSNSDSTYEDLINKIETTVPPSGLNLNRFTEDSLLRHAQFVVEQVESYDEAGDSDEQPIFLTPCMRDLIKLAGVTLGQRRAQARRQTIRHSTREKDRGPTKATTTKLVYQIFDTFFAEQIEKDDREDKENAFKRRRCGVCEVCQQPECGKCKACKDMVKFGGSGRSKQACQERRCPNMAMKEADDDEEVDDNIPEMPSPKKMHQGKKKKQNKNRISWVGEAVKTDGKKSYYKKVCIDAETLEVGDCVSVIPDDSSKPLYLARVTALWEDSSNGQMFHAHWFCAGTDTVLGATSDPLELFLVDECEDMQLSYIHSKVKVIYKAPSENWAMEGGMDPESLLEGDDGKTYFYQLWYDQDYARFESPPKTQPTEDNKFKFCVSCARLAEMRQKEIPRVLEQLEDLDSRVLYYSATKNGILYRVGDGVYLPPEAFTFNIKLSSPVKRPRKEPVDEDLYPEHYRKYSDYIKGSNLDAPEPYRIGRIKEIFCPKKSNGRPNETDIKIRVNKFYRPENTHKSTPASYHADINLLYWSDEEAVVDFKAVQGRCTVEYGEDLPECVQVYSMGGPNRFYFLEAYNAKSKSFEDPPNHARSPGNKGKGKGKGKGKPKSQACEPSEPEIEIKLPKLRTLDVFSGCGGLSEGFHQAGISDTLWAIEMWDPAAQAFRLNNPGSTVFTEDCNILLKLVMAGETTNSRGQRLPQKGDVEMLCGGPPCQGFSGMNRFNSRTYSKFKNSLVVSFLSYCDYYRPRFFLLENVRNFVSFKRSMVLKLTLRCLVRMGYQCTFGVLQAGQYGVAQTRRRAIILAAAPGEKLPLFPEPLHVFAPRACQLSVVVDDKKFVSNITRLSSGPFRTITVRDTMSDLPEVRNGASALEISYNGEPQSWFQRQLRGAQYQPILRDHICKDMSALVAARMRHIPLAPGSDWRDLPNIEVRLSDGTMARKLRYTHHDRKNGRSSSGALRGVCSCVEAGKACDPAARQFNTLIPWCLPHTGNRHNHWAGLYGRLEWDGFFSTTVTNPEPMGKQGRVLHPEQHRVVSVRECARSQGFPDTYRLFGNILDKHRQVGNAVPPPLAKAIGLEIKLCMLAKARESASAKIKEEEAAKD
Sequence of Epstein-Barr nuclear antigen 1 (P03211 whole entry): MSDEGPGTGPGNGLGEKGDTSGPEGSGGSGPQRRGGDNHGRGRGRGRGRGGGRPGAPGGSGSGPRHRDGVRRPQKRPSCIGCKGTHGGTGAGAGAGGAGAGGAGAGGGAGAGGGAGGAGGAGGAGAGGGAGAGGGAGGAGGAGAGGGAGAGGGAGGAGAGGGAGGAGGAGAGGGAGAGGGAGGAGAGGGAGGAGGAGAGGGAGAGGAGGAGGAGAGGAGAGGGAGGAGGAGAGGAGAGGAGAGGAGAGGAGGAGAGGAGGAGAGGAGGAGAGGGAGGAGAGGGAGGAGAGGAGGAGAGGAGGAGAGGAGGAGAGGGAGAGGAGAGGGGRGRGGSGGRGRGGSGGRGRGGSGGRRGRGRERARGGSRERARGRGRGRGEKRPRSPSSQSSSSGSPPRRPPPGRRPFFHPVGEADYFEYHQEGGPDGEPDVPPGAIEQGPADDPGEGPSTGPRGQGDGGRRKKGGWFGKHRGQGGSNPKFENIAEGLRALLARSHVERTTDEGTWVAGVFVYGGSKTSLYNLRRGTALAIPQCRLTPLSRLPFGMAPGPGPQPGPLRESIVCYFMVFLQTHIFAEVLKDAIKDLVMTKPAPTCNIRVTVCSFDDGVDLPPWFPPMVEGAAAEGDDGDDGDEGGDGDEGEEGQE
Sequence of Beta-lactamase (Salmonella choleraesuis (strain SC-B67), UniProt Q5J463) (Q5J463 whole entry): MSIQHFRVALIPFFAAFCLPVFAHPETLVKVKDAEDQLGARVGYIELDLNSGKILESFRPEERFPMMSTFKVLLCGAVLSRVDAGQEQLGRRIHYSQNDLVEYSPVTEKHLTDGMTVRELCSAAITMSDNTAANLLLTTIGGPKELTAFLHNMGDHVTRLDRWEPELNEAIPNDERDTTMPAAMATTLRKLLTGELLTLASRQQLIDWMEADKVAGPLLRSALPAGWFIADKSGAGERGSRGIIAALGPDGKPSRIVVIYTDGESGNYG
Sequence of 26S proteasome non-ATPase regulatory subunit 14 (O00487 whole entry): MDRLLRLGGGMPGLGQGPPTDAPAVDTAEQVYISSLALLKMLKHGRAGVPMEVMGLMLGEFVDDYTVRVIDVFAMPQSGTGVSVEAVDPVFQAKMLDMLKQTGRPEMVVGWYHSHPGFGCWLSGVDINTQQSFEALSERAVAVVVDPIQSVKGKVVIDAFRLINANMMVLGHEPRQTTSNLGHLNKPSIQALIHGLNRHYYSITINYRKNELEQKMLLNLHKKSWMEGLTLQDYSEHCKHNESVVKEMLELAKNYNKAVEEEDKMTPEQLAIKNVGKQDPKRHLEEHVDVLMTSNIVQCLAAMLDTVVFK
Sequence of Lytic switch protein BZLF1 (P03206 whole entry): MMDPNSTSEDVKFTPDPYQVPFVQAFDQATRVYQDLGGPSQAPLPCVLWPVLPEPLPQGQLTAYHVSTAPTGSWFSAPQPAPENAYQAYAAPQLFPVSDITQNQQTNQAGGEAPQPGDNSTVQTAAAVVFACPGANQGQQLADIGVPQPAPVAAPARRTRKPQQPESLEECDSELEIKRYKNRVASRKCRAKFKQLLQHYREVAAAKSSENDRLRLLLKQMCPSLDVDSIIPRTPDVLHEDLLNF

Regarding `O=C1NN(c2ccc(F)c(Cl)c2)C(=O)/C1=C\c1ccco1`, at Bcl-2-like protein 10, the EC50 is 33.4 µM (active).
`Cc1ccc(-n2cccc2/C=C2/C(=N)N3C(=NC2=O)SN=C3S(C)(=O)=O)cc1Cl`: the IC50 is 21.1 µM (active) on Prothrombin; 13.4 µM (active) in assay [1]; 1.86 µM (active) in assay [3]; > 100 µM (inactive) in [4]; 15 µM (active) at Aminopeptidase N; 28.9 µM (active) in assay [5]. Further, the IC50 in [6] is 7.72 µM (active). Moreover, the AC50 in [2] is 8.75 µM (active).
As for `O=C(CSc1nc2ccc(NC(=O)CSc3nnnn3-c3ccccc3)cc2s1)Nc1ccccc1`, the IC50 is on record as 12 µM (not active) in assay [7] and > 111 µM (not active) in assay [8].
For `O=C(O)c1cccc(NC(=S)N/N=C/c2ccccc2OCc2cccc(Br)c2)c1`, the IC50 at Beta-lactamase [9] is > 59.6 µM (inactive); at Beta Lactamase [10], 1.16 µM (active); at Beta-lactamase [11], > 59.6 µM (inactive); on Beta-lactamase [12], > 59.6 µM (inactive); in [13], 44.4 µM (active); in assay [14], 15.8 µM (active). The IC50 was 9.15 µM (active) on Beta Lactamase [15], 15.8 µM (active) on Leucine aminopeptidase, 5.97 µM (active) in assay [16] and > 50 µM (not active) in assay [17].

What is called EC50 is the midpoint of the concentration-response curve. Usually AC50 stands for the concentration at which the activity in the assay is half-maximal.
